Target: T1, Human GnRH receptor (Homo sapiens, UniProt P30968)
T1 construct: expressed in transfected cells; host or cells: CHO (Chinese hamster ovary) cells, membrane fraction
T1 sequence (P30968 1-328): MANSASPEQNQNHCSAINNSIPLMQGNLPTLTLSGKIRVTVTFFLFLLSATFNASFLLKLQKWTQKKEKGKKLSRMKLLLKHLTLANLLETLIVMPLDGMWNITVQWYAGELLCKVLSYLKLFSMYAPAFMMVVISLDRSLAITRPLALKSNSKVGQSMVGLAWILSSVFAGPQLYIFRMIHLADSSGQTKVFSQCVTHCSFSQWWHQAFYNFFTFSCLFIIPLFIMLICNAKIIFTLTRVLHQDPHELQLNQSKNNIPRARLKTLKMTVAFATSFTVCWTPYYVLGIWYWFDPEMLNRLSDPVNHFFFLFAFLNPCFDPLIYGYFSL
Assay: Human GnRH receptor binding inhibition assay (125I-leuprolerin, membrane fraction of CHO cells expressing human GnRH receptors)
Settings: CHO cell membrane fraction with human GnRH receptors, 25° C., 60 minutes, concentration series, Hill plot, read-out: Binding inhibitory activity (IC50)
Description: Human GnRH receptor binding inhibition assay
(A) Preparation of ^125 I-leuprolerin
Ten (10) μl of 3×10^-4 M aqueous leuprolerin solution and 10 μl of 0.01 mg/ml lactoperoxidase solution were taken in a tube, and 10 μl of Na^125 I solution (37 MBq) was added. After stirring, 10 μl of 0.001% H2 O2 was added and the reaction was conducted at room temperature for 20 minutes. The reaction was stopped by adding 700 μl of 0.05% TFA solution, and the reaction mixture was purified by reversed HPLC. The HPLC parameters are shown below. The retention time of ^125 I-leuprolerin was 26-27 minutes.
Column: TSKgel ODS-80™ CTR (4.6 mm×10 cm)
Eluent: Solvent A (0.05%TFA) Solvent B (40%CH3 CN-0.05%TFA)
Min. 0 (100% Solvent A)--Min. 3 (100% Solvent A)--Min. 7 (50% Solvent A+50% Solvent B)--Min. 40 (100% Solvent B) Elution temperature: room temperature Elution flow rate: 1 ml/min.
CHO cells (10^9 cells) with human GnRH receptors expressed were floated on phosphate-buffered saline containing EDTA (PBS-EDTA) and centrifuged at 100×g for 5 minutes. To the pellet obtained was added 10 ml of a cell homogenate buffer (10 mM NaHCO3, 5 mM EDTA, pH 7.5) and the mixture was homogenized using a Polytron homogenizer. The homogenate was centrifuged at 400×g for 15 minutes and the supernatant was taken in an ultracentrifuge tube and recentrifuged at 100,000×g for 1 hour. The membrane fraction thus obtained as a pellet was suspended in 2 ml of assay buffer and centrifuged at 100,000×g for 1 hour. The membrane fraction recovered was resuspended in 20 ml of assay buffer and the suspension was portioned, stored at -80° C., and thawed when needed.
(C) Determination of the ^125 I-leuprolerin binding inhibition rate
The membrane fraction prepared in Step (B) was diluted with assay buffer to 200 μg/ml and the dilution was portioned into tubes, 188 μl per tube. Then, 2 μl of 2 mM solution of the test compound in 60% DMSO and 10 μl of 38 nM ^125 I-leuprolerin solution in the same solvent were simultaneously added to the tubes. To determine the maximum binding, a test mixture of 2 μl of 60% DMSO and 10 μl of 38 nM ^125 I-leuprolerin solution in the same solvent was prepared. For the determination of nonspecific binding, a test mixture of 2 μl of 100 μM leuprolerin solution in 60% DMSO and 10 μl of 38 nM solution of ^125 I-leuprolerin in the same solvent was also prepared. The mixtures were respectively allowed to react at 25° C. for 60 minutes and the reaction product in each tube was filtered through a poly(ethylene imine)-treated Whatman glass filter (GF-F) under suction. The radioactivity of ^125 I-leuprolerin remaining on the filter was determined using a γ-counter.
Using the measured values, the following equation was calculated to find the binding inhibition rate for each test compound.
Binding inhibition (%)=(TB-SB)/(TB-NSB)×100
[SB: radioactivity with the compound added
TB: maximum bound radioactivity
NBS: nonspecifically bound radioactivity]
Using a concentration series of each test compound, the concentration of the compound which inhibited the binding by 50% (IC50) was calculated by Hill plot.

| SMILES | IC50 [nM] |
| --- | --- |
| O=C(Nc1ccc(CN2C(=O)[C@H]3CCC[C@H]3N(C(=O)CN3C(=O)c4ccccc4C3=O)c3ccccc32)cc1)OCc1ccccc1 (relative stereo) [Example 1, (3aR*,10aS*)-9-[4-(Benzyloxycarbonylamino)benzyl]-4-(phthalimidoacetyl)-2,3,3a,4,9,10a-hexahydrobenzo[b]cyclopenta[e][1,4]diazepin-10(1H)-one] | 100 |
| O=C(Nc1ccc(CN2C(=O)[C@H]3CCC[C@H]3N(C(=O)CN3C(=O)C4=C(CCCC4)C3=O)c3ccccc32)cc1)OCc1ccccc1 (relative stereo) [Example 2, (3aR*,10aS*)-9-[4-(Benzyloxycarbonylamino)benzyl]-4-(2H-1,3-dioxo-1,3,4,5,6,7-hexahydroisoindole-2-acetyl)-2,3,3a,4,9,10a-hexahydrobenzo[b]cyclopenta[e][1,4]diazepin-10(1H)-one] | 70 |
| CCC(=O)Nc1ccc(CN2C(=O)[C@H]3CCC[C@H]3N(C(=O)CN3C(=O)c4ccccc4C3=O)c3ccccc32)cc1 (relative stereo) [Example 6, (3aR*,10aS*)-4-(Phthalimidoacetyl)-9-(4-propionamidobenzyl)-2,3,3a,4,9,10a-hexahydrobenzo[b]cyclopenta[e][1,4]diazepin-10(1H)-one] | 800 |
| O=C(Nc1ccc(CN2C(=O)[C@H]3CCC[C@H]3N(C(=O)CN3C(=O)c4ccccc4C3=O)c3ccccc32)cc1)c1ccccc1 (relative stereo) [Example 7, (3aR*,10aS*)-9-(4-Benzamidobenzyl)-4-(phthalimidoacetyl)-2,3,3a,4,9,10a-hexahydrobenzo[b]cyclopenta[e]-[1,4]diazepin-10(1H)-one] | 200 |
| O=C(Nc1ccc(CN2C(=O)[C@H]3CCC[C@H]3N(C(=O)CN3C(=O)c4ccccc4C3=O)c3ccccc32)cc1)c1ccccc1F (relative stereo) [Example 8, (3aR*,10aS*)-9-[4-(2-Fluorobenzamido)benzyl]-4-(phthalimidoacetyl)-2,3,3a,4,9,10a-hexahydrobenzo[b]cyclopenta[e][1,4]diazepin-10(1H)-one] | 300 |
| O=C(Nc1ccc(CN2C(=O)[C@H]3CCC[C@H]3N(C(=O)CN3C(=O)c4ccccc4C3=O)c3ccccc32)cc1)c1cccc(F)c1 (relative stereo) [Example 9, (3aR*,10aS*)-9-[4-(3-Fluorobenzamido)benzyl]-4-(phthalimidoacetyl)-2,3,3a,4,9,10a-hexahydrobenzo[b]cyclopenta[e][1,4]diazepin-10(1H)-one] | 200 |
| O=C(Nc1ccc(CN2C(=O)[C@H]3CCC[C@H]3N(C(=O)CN3C(=O)c4ccccc4C3=O)c3ccccc32)cc1)c1ccc(F)cc1 (relative stereo) [Example 10, (3aR*,10aS*)-9-[4-(4-Fluorobenzamido)benzyl]-4-(phthalimidoacetyl)-2,3,3a,4,9,10a-hexahydrobenzo[b]cyclopenta[e][1,4]diazepin-10(1H)-one] | 200 |
| O=C(Nc1ccc(CN2C(=O)[C@H]3CCC[C@H]3N(C(=O)CN3C(=O)c4ccccc4C3=O)c3ccccc32)cc1)c1ccc(Cl)cc1 (relative stereo) [Example 11, (3aR*,10aS*)-9-[4-(4-Chlorobenzamido)benzyl]-4-(phthalimidoacetyl)-2,3,3a,4,9,10a-hexahydrobenzo[b]cyclopenta[e][1,4]diazepin-10(1H)-one] | 200 |
| O=C(Nc1ccc(CN2C(=O)[C@H]3CCC[C@H]3N(C(=O)CN3C(=O)c4ccccc4C3=O)c3ccccc32)cc1)c1ccc(Br)cc1 (relative stereo) [Example 12, (3aR*,10aS*)-9-[4-(4-Bromobenzamido)benzyl]-4-(phthalimidoacetyl)-2,3,3a,4,9,10a-hexahydrobenzo[b]cyclopenta[e][1,4]diazepin-10(1H)-one] | 300 |
| COc1cccc(C(=O)Nc2ccc(CN3C(=O)[C@H]4CCC[C@H]4N(C(=O)CN4C(=O)c5ccccc5C4=O)c4ccccc43)cc2)c1 (relative stereo) [Example 14, (3aR*,10aS*)-9-[4-(3-Methoxybenzamido)benzyl]-4-(phthalimidoacetyl)-2,3,3a,4,9,10a-hexahydrobenzo[b]cyclopenta[e][1,4]diazepin-10(1H)-one] | 200 |
| COc1ccc(C(=O)Nc2ccc(CN3C(=O)[C@H]4CCC[C@H]4N(C(=O)CN4C(=O)c5ccccc5C4=O)c4ccccc43)cc2)cc1 (relative stereo) [Example 15, (3aR*,10aS*)-9-[4-(4-Methoxybenzamido)benzyl]-4-(phthalimidoacetyl)-2,3,3a,4,9,10a-hexahydrobenzo[b]cyclopenta[e][1,4]diazepin-10(1H)-one] | 200 |
| O=C(CCc1ccccc1)Nc1ccc(CN2C(=O)[C@H]3CCC[C@H]3N(C(=O)CN3C(=O)c4ccccc4C3=O)c3ccccc32)cc1 (relative stereo) [Example 17, (3aR*,10aS*)-9-[4-(3-Phenylpropionamido)benzyl]-4-(phthalimidoacetyl)-2,3,3a,4,9,10a-hexahydrobenzo[b]cyclopenta[e][1,4]diazepin-10(1H)-one] | 500 |
| O=C(COc1ccccc1)Nc1ccc(CN2C(=O)[C@H]3CCC[C@H]3N(C(=O)CN3C(=O)c4ccccc4C3=O)c3ccccc32)cc1 (relative stereo) [Example 18, (3aR*,10aS*)-9-[4-(Phenoxyacetamido)benzyl]-4-(phthalimidoacetyl)-2,3,3a,4,9,10a-hexahydrobenzo[b]cyclopenta[e][1,4]diazepin-10(1H)-one] | 600 |
| O=C(Nc1ccc(CN2C(=O)[C@H]3CCC[C@H]3N(C(=O)CN3C(=O)c4ccccc4C3=O)c3ccccc32)cc1)c1ccc2ccccc2c1 (relative stereo) [Example 21, (3aR*,10aS*)-9-[4-(2-Naphthoylamino)benzyl]-4-(phthalimidoacetyl)-2,3,3a,4,9,10a-hexahyrobenzo[b]cyclopenta[e][1,4]diazepin-10(1H)-one] | 200 |
| O=C(NCc1ccccc1)Nc1ccc(CN2C(=O)[C@H]3CCC[C@H]3N(C(=O)CN3C(=O)c4ccccc4C3=O)c3ccccc32)cc1 (relative stereo) [Example 25, (3aR*,10aS*)-9-[4-(3-benzylureido)benzyl]-4-(phthalimidoacetyl)-2,3,3a,4,9,10a-hexahydrobenzo[b]cyclopenta[e][1,4]diazepin-10(1H)-one] | 30 |
| O=C(NCc1ccccc1)Nc1ccc(CN2C(=O)[C@H]3CCC[C@H]3N(C(=O)CN3C(=O)C4=C(CCCC4)C3=O)c3ccccc32)cc1 (relative stereo) [Example 26, (3aR*,10aS*)-9-[4-(3-Benzylureido)benzyl]-4-(2H-1,3-dioxo-1,3,4,5,6,7-hexahydroisoindole-2-acetyl)-2,3,3a,4,9,10a-hexahydrobenzo[b]cyclopenta[e][1,4]diazepin-10(1H)-one] | 40 |
| C[C@@H](NC(=O)Nc1ccc(CN2C(=O)[C@H]3CCC[C@H]3N(C(=O)CN3C(=O)c4ccccc4C3=O)c3ccccc32)cc1)c1ccccc1 (relative stereo) [Example 27, (3aR*,10aS*)-9-[4-[3-((R)-1-Phenylethyl)ureido]-benzyl]-4-(phthalimidoacetyl)-2,3,3a,4,9,10a-hexahydrobenzo[b]cyclopenta[e][1,4]diazepin-10(1H)-one] | 20 |

Reference: patent publication US5866567A, “Diazepinones, their production and use” (Takeda Chemical Industries, Ltd., priority 1995, dated 1999)
